According to the supplement of paper PMC11061612:

Key:
[1] = tested on: Hey (Ovarian Carcinoma); assay: Bliss excess, mean over the matrix (fraction); higher = more synergy
Summary of the method: (§1)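 Bliss excess equals the observed combination effect minus the expected value EA + EB − EA·EB, where EA and EB are the effects of each agent alone. Combination Emax is the second-highest inhibition within the matrix. Inhibition was scaled from CellTiter-Glo 2.0 luminescence, with 0 set by vehicle wells and 1 by blank wells, after 72 hours of two-drug dosing of cells plated in 1536-well plates.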

[2] = tested on: NCI-H1092 (Small Cell Lung Carcinoma); assay: as above
Summary of the method: as §1

[3] = tested on: COLO-668 (Small Cell Lung Carcinoma); assay: combination Emax (second highest fraction inhibited in the dose matrix, 72 h); higher = more inhibition; extreme values may be limits of the assay
Summary of the method: as §1

[4] = tested on: COLO-679 (Melanoma); assay: as above
Summary of the method: as §1

[5] = tested on: Ca-Ski (Cervical Carcinoma); assay: as above
Summary of the method: as §1

[6] = tested on: DU-145 (Prostate Carcinoma); assay: as above
Summary of the method: as §1

[7] = tested on: EW-1 (Ewing's Sarcoma); assay: as above
Summary of the method: as §1

[8] = tested on: G-401 (Other Solid Carcinomas); assay: as above
Summary of the method: as §1

[9] = tested on: KMRC-1 (Kidney Carcinoma); assay: as above
Summary of the method: as §1

[10] = tested on: LC-1-sq (Squamous Cell Lung Carcinoma); assay: as above
Summary of the method: as §1

[11] = tested on: ML-2 (Acute Myeloid Leukemia); assay: as above
Summary of the method: as §1

[12] = tested on: MV-4-11 (Acute Myeloid Leukemia); assay: as above
Summary of the method: as §1

[13] = tested on: Mo-T (Other Blood Carcinomas); assay: as above
Summary of the method: as §1

[14] = tested on: NCI-H1355 (Lung Adenocarcinoma); assay: as above
Summary of the method: as §1

[15] = tested on: NCI-H522 (Lung Adenocarcinoma); assay: as above
Summary of the method: as §1

[16] = tested on: OE33 (Esophageal Adenocarcinoma); assay: as above
Summary of the method: as §1

[17] = tested on: SK-LU-1 (Lung Adenocarcinoma); assay: as above
Summary of the method: as §1

[18] = tested on: SNU-387 (Hepatocellular Carcinoma); assay: as above
Summary of the method: as §1

[19] = tested on: SW872 (Other Solid Carcinomas); assay: as above
Summary of the method: as §1

[20] = tested on: SW982 (Other Solid Carcinomas); assay: as above
Summary of the method: as §1

| SMILES | Bliss excess [1] | Bliss excess [2] | combination Emax [3] | combination Emax [4] | combination Emax [5] | combination Emax [6] | combination Emax [7] | combination Emax [8] | combination Emax [9] | combination Emax [10] | combination Emax [11] | combination Emax [12] | combination Emax [13] | combination Emax [14] | combination Emax [15] | combination Emax [16] | combination Emax [17] | combination Emax [18] | combination Emax [19] | combination Emax [20] |
| --- | --- | --- | --- | --- | --- | --- | --- | --- | --- | --- | --- | --- | --- | --- | --- | --- | --- | --- | --- | --- |
| NC1(C(=O)N[C@@H](CCO)c2ccc(Cl)cc2)CCN(c2ncnc3[nH]ccc23)CC1 [Capivasertib] + Cn1cnc2c(F)c(Nc3ccc(Br)cc3Cl)c(C(=O)NOCCO)cc21 [Selumetinib] (first compound max 10 µM, 7x7, partner max 10 µM) | -0.0041 | -0.0225 | 0.669 | 0.786 | 0.597 | 0.219 | 0.437 | 0.746 | 0.504 | 0.34 | 0.985 | 0.881 | 0.41 | 0.443 | 0.268 | 0.423 | 0.437 | 0.409 | 0.449 | 0.574 |
| CCN(CCO)CCCOc1ccc2c(Nc3cc(CC(=O)Nc4cccc(F)c4)[nH]n3)ncnc2c1 [AZD2811] + O=C(c1cc(Cc2n[nH]c(=O)c3ccccc23)ccc1F)N1CCN(C(=O)C2CC2)CC1 [Olaparib] (first compound max 1 µM, 7x7, partner max 10 µM) | 0.0251 | -0.0196 | 0.178 | 0.281 | 0.289 | 0.199 | 0.709 | 0.496 | 0.19 | 0.305 | 0.835 | 0.961 | 0.369 | 0.318 | 0.221 | 0.127 | 0.229 | 0.17 | 0.172 | 0.658 |
| NC1(C(=O)N[C@@H](CCO)c2ccc(Cl)cc2)CCN(c2ncnc3[nH]ccc23)CC1 [Capivasertib] + CCN(CCO)CCCOc1ccc2c(Nc3cc(CC(=O)Nc4cccc(F)c4)[nH]n3)ncnc2c1 [AZD2811] (first compound max 10 µM, 7x7, partner max 1 µM) | 0.0375 | -0.0137 | 0.454 | 0.31 | 0.465 | 0.219 | 0.568 | 0.658 | 0.494 | 0.322 | 1 | 0.954 | 0.321 | 0.425 | 0.226 | 0.202 | 0.195 | 0.312 | 0.336 | 0.672 |
| Cc1c2c(nn1C)CSCc1cc(n(C)n1)CSc1cc(c3ccccc3c1)OCCCc1c(C(=O)O)n(C)c3c-2c(Cl)ccc13 [AZD5991] + CCN(CCO)CCCOc1ccc2c(Nc3cc(CC(=O)Nc4cccc(F)c4)[nH]n3)ncnc2c1 [AZD2811] (first compound max 1 µM, 7x7, partner max 1 µM) | 0.0293 | 0.0479 | 0.235 | 0.42 | 0.7 | 0.23 | 0.482 | 0.615 | 0.194 | 0.428 | 1 | 1 | 0.189 | 0.334 | 0.657 | 0.139 | 0.41 | 0.458 | 0.249 | 0.688 |
| Cc1c2c(nn1C)CSCc1cc(n(C)n1)CSc1cc(c3ccccc3c1)OCCCc1c(C(=O)O)n(C)c3c-2c(Cl)ccc13 [AZD5991] + CC1(C)CCC(CN2CCN(c3ccc(C(=O)NS(=O)(=O)c4ccc(NCC5CCOCC5)c([N+](=O)[O-])c4)c(Oc4cnc5[nH]ccc5c4)c3)CC2)=C(c2ccc(Cl)cc2)C1 [Venetoclax] (first compound max 1 µM, 7x7, partner max 1 µM) | -0.0236 | 0.117 | 0.686 | 0.388 | 0.682 | 0.149 | 0.684 | 0.565 | 0.289 | 0.322 | 1 | 1 | 0.196 | 0.188 | 0.443 | 0.21 | 0.258 | 0.454 | 0.312 | 0.192 |
| NC1(C(=O)N[C@@H](CCO)c2ccc(Cl)cc2)CCN(c2ncnc3[nH]ccc23)CC1 [Capivasertib] + CC(C)n1c(=O)n(C)c2cnc3cc(F)c(-c4ccc(OCCCN5CCCCC5)nc4)cc3c21 [AZD1390] (first compound max 10 µM, 7x7, partner max 0.3 µM) | -0.0766 | -0.0596 | 0.401 | 0.225 | 0.433 | 0.249 | 0.352 | 0.545 | 0.435 | 0.253 | 0.71 | 0.722 | 0.239 | 0.273 | 0.192 | 0.185 | 0.195 | 0.256 | 0.342 | 0.435 |
| Cn1cnc2c(F)c(Nc3ccc(Br)cc3Cl)c(C(=O)NOCCO)cc21 [Selumetinib] + CC(C)n1c(=O)n(C)c2cnc3cc(F)c(-c4ccc(OCCCN5CCCCC5)nc4)cc3c21 [AZD1390] (first compound max 10 µM, 7x7, partner max 0.3 µM) | -0.0378 | -0.0468 | 0.421 | 0.796 | 0.222 | 0.16 | 0.159 | 0.367 | 0.165 | 0.184 | 0.78 | 0.711 | 0.246 | 0.172 | 0.0811 | 0.265 | 0.264 | 0.284 | 0.203 | 0.266 |
| CCN(CCO)CCCOc1ccc2c(Nc3cc(CC(=O)Nc4cccc(F)c4)[nH]n3)ncnc2c1 [AZD2811] + C[C@@H]1COCCN1C2=NC(=NC(=C2)C3(CC3)[S@](=N)(=O)C)C4=C5C=CNC5=NC=C4 [AZD6738] (first compound max 1 µM, 7x7, partner max 10 µM) | -0.0498 | -0.0308 | 0.644 | 0.679 | 0.607 | 0.596 | 0.852 | 0.536 | 0.566 | 0.823 | 0.985 | 0.998 | 0.556 | 0.679 | 0.142 | 0.8 | 0.473 | 0.494 | 0.571 | 0.71 |
| CN(C)CCCOc1ccc(-c2ccc3ncc4c(c3c2)n(C2CCOCC2)c(=O)n4C)cn1 [AZD0156] + CCN(CCO)CCCOc1ccc2c(Nc3cc(CC(=O)Nc4cccc(F)c4)[nH]n3)ncnc2c1 [AZD2811] (first compound max 1 µM, 7x7, partner max 1 µM) | 0.0051 | -0.0102 | 0.0922 | 0.159 | 0.274 | 0.134 | 0.301 | 0.309 | 0.13 | 0.257 | 0.878 | 0.93 | 0.137 | 0.216 | 0.0622 | 0.068 | 0.143 | 0.207 | 0.0742 | 0.548 |
| CC(=O)c1c(C)c2cnc(Nc3ccc(N4CCNCC4)cn3)nc2n(C2CCCC2)c1=O [Palbociclib] + Cc1c2c(nn1C)CSCc1cc(n(C)n1)CSc1cc(c3ccccc3c1)OCCCc1c(C(=O)O)n(C)c3c-2c(Cl)ccc13 [AZD5991] (first compound max 10 µM, 7x7, partner max 1 µM) | -0.0205 | -0.0646 | 0.304 | 0.335 | 0.342 | 0.107 | 0.491 | 0.854 | 0.322 | 0.241 | 1 | 1 | 0.344 | 0.345 | 0.57 | 0.275 | 0.297 | 0.429 | 0.228 | 0.528 |
| Cc1c2c(nn1C)CSCc1cc(n(C)n1)CSc1cc(c3ccccc3c1)OCCCc1c(C(=O)O)n(C)c3c-2c(Cl)ccc13 [AZD5991] + C[C@@H]1COCCN1C2=NC(=NC(=C2)C3(CC3)[S@](=N)(=O)C)C4=C5C=CNC5=NC=C4 [AZD6738] (first compound max 1 µM, 7x7, partner max 10 µM) | 0.012 | 0.0651 | 0.63 | 0.674 | 0.717 | 0.621 | 0.965 | 0.828 | 0.549 | 0.845 | 1 | 1 | 0.483 | 0.652 | 0.417 | 0.784 | 0.521 | 0.638 | 0.547 | 0.748 |
| CN(C)CCCOc1ccc(-c2ccc3ncc4c(c3c2)n(C2CCOCC2)c(=O)n4C)cn1 [AZD0156] + C[C@@H]1COCCN1C2=NC(=NC(=C2)C3(CC3)[S@](=N)(=O)C)C4=C5C=CNC5=NC=C4 [AZD6738] (first compound max 1 µM, 7x7, partner max 10 µM) | -0.019 | -0.0427 | 0.612 | 0.749 | 0.668 | 0.544 | 0.93 | 0.493 | 0.575 | 0.877 | 0.967 | 0.992 | 0.481 | 0.69 | 0.0837 | 0.788 | 0.474 | 0.553 | 0.552 | 0.723 |
| COc1nnc2ccc(N3CCC(c4ccc(OCCN5CCN(C)C(=O)[C@H]5C)cc4)CC3)nn12 [AZD5153] + C[C@@H]1COCCN1C2=NC(=NC(=C2)C3(CC3)[S@](=N)(=O)C)C4=C5C=CNC5=NC=C4 [AZD6738] (first compound max 1 µM, 7x7, partner max 10 µM) | -0.0048 | 0.0493 | 0.917 | 0.718 | 0.794 | 0.447 | 0.953 | 0.924 | 0.456 | 0.783 | 1 | 1 | 0.746 | 0.639 | 0.565 | 0.731 | 0.516 | 0.524 | 0.634 | 0.843 |
